Results: US8399403B2, “Chemical linkers and conjugates thereof” (priority 2004, dated 2013)

Experiments:
[1] = Rate of cyclization of 6-membered hydrazine linker in buffer; type: physicochemical; conditions: incubated in buffer at pH 7.4, assessed over time
Procedure: A duocarmycin analog conjugated to a dimethyl 6-membered hydrazine linker was incubated in buffer at pH 7.4 for 24 hours and the generation of cyclized product resulting from cyclization of the hydrazine linker, thereby releasing free duocarmycin analog, was assessed over time.
A duocarmycin analog conjugated to a gem-dimethyl 6-membered hydrazine linker was incubated in buffer at pH 7.4 and the generation of cyclized product resulting from cyclization of the hydrazine linker, thereby releasing free duocarmycin analog, was assessed over time.

experimental animals = conditions: cited from earlier work
[2] = in vitro and in experimental animals; cited from earlier work

SMILES: COC(=O)c1c(C)[nH]c2c(OC(=O)N(C)C(C)(C)C(=O)N(C)N)cc3c(c12)[C@H](CCl)CN3C(=O)c1cc2cc(OC)ccc2o1
- generation of cyclized product resulting from cyclization of the hydrazine linker (release of free duocarmycin analog) [1]: proceeding to completion within a few minutes

SMILES: COc1c(O)c2c(c3cc(C(=O)N4CCc5c4c(O)c(OC)c4[nH]c(C(=O)N6CC7CC78C6=CC(=O)c6[nH]cc(C)c68)cc54)[nH]c13)CCN2C(N)=O (stereo not shown) [CC-1065]
- toxicity in experimental animals (experimental animals): causes delayed death in experimental animals
- antitumor and antimicrobial activity [2]: potent antitumor and antimicrobial activity

SMILES: COC(=O)c1c(C)[nH]c2c(OC(=O)N(C)CC(=O)N(C)N)cc3c(c12)[C@H](CCl)CN3C(=O)c1cc2cc(OC)ccc2o1
- generation of cyclized product resulting from cyclization of the hydrazine linker (release of free duocarmycin analog) [1]: Minimal amounts of cyclized product were detected over 24 hours
